Source: patent US20230085307A1, “PYRIDAZINONE COMPOUND AND HERBICIDE” (NISSAN CHEMICAL CORPORATION, priority 2019, published 2023)

tested on: persian speedwell; assay: Test Example 5: herbicidal effect by foliage application, plastic box (Table 20, symbol R); format: in vivo, Persian speedwell (Veronica persica); details: foliage application, 320 g/ha, three weeks after application
Procedure, shortened: (§1)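 Plants sown in sterilized diluvial soil and grown 14 days in a greenhouse at 25° C to 30° C, then sprayed on the foliage with the compound's emulsion diluted in water to a predetermined herbicide amount. Injury to weeds and crops scored three weeks after application on a visual rating scale.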

Row | SMILES | herbicidal effect grade, R: persian speedwell
1 | CCOc1cc(F)ccc1-c1sc2ccccc2c1-c1c(O)c(C)nn(C)c1=O [1-061] | 5 (Herbicidal rate of 90% or more (almost completely withered))
2 | CCCC(=O)Oc1c(C)nn(C)c(=O)c1-c1c(-c2ccc(OC)c(OC)c2)sc2ccccc12 [1-073] | 5 (Herbicidal rate of 90% or more (almost completely withered))

tested on: wild oat; assay: Test Example 4: herbicidal effect by soil treatment (Table 19, symbol I); format: in vivo, wild oat (Avena fatua); details: amount of applied herbicide 320 g/ha
Procedure, shortened: (§2)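 Three weeks of greenhouse growth at 25° C. to 30° C. followed a uniform surface spray of water-diluted emulsion at a predetermined herbicide amount. Seeds had been sown beforehand under about 1.5 cm of sterilized diluvial soil. Grading followed criteria set out in an earlier test.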

Row | SMILES | herbicidal effect rating, I: wild oat
3 | CCOc1cc(F)ccc1-c1sc2ccccc2c1-c1c(O)c(C)nn(C)c1=O [1-061] | 3 (Herbicidal rate of 40% or more and less than 70%)
4 | CCCC(=O)Oc1c(C)nn(C)c(=O)c1-c1c(-c2ccc(OC)c(OC)c2)sc2ccccc12 [1-073] | 2 (Herbicidal rate of 20% or more and less than 40%)

tested on: redroot pigweed; assay: Test Example 4: herbicidal effect by soil treatment (Table 19, symbol N); format: in vivo, redroot pigweed (Amaranthus retroflexus); details: amount of applied herbicide 320 g/ha
Procedure, shortened: as §2

Row | SMILES | herbicidal effect rating, N: redroot pigweed
5 | CCOc1cc(F)ccc1-c1sc2ccccc2c1-c1c(O)c(C)nn(C)c1=O [1-061] | 4 (Herbicidal rate of 70% or more and less than 90%)
6 | CCCC(=O)Oc1c(C)nn(C)c(=O)c1-c1c(-c2ccc(OC)c(OC)c2)sc2ccccc12 [1-073] | 4 (Herbicidal rate of 70% or more and less than 90%)

tested on: chickweed; assay: Test Example 5: herbicidal effect by foliage application, plastic box (Table 20, symbol P); format: in vivo, common chickweed (Stellaria media); details: foliage application, 320 g/ha, three weeks after application
Procedure, shortened: as §1

Row | SMILES | herbicidal effect grade, P: chickweed
7 | CCOc1cc(F)ccc1-c1sc2ccccc2c1-c1c(O)c(C)nn(C)c1=O [1-061] | 5 (Herbicidal rate of 90% or more (almost completely withered))
8 | CCCC(=O)Oc1c(C)nn(C)c(=O)c1-c1c(-c2ccc(OC)c(OC)c2)sc2ccccc12 [1-073] | 5 (Herbicidal rate of 90% or more (almost completely withered))

tested on: green foxtail; assay: Test Example 5: herbicidal effect by foliage application, plastic box (Table 20, symbol G); format: in vivo, green foxtail (Setaria viridis); details: foliage application, 320 g/ha, three weeks after application
Procedure, shortened: as §1

Row | SMILES | herbicidal effect grade, G: green foxtail
9 | CCOc1cc(F)ccc1-c1sc2ccccc2c1-c1c(O)c(C)nn(C)c1=O [1-061] | 5 (Herbicidal rate of 90% or more (almost completely withered))
10 | CCCC(=O)Oc1c(C)nn(C)c(=O)c1-c1c(-c2ccc(OC)c(OC)c2)sc2ccccc12 [1-073] | 5 (Herbicidal rate of 90% or more (almost completely withered))

tested on: southern crabgrass; assay: Test Example 5: herbicidal effect by foliage application, plastic box (Table 20, symbol F); format: in vivo, southern crabgrass (Digitaria ciliaris); details: foliage application, 320 g/ha, three weeks after application
Procedure, shortened: as §1

Row | SMILES | herbicidal effect grade, F: southern crabgrass
11 | CCOc1cc(F)ccc1-c1sc2ccccc2c1-c1c(O)c(C)nn(C)c1=O [1-061] | 5 (Herbicidal rate of 90% or more (almost completely withered))
12 | CCCC(=O)Oc1c(C)nn(C)c(=O)c1-c1c(-c2ccc(OC)c(OC)c2)sc2ccccc12 [1-073] | 5 (Herbicidal rate of 90% or more (almost completely withered))

tested on: barnyard grass; assay: Test Example 5: herbicidal effect by foliage application, plastic box (Table 20, symbol H); format: in vivo, barnyard grass (Echinochloa crus-galli); details: foliage application, 320 g/ha, three weeks after application
Procedure, shortened: as §1

Row | SMILES | herbicidal effect grade, H: barnyard grass
13 | CCOc1cc(F)ccc1-c1sc2ccccc2c1-c1c(O)c(C)nn(C)c1=O [1-061] | 5 (Herbicidal rate of 90% or more (almost completely withered))
14 | CCCC(=O)Oc1c(C)nn(C)c(=O)c1-c1c(-c2ccc(OC)c(OC)c2)sc2ccccc12 [1-073] | 5 (Herbicidal rate of 90% or more (almost completely withered))

tested on: barnyard grass; assay: Test Example 4: herbicidal effect by soil treatment (Table 19, symbol H); format: in vivo, barnyard grass (Echinochloa crus-galli); details: amount of applied herbicide 320 g/ha
Procedure, shortened: as §2

Row | SMILES | herbicidal effect rating, H: barnyard grass
15 | CCOc1cc(F)ccc1-c1sc2ccccc2c1-c1c(O)c(C)nn(C)c1=O [1-061] | 4 (Herbicidal rate of 70% or more and less than 90%)
16 | CCCC(=O)Oc1c(C)nn(C)c(=O)c1-c1c(-c2ccc(OC)c(OC)c2)sc2ccccc12 [1-073] | 4 (Herbicidal rate of 70% or more and less than 90%)

tested on: windgrass; assay: Test Example 5: herbicidal effect by foliage application, plastic box (Table 20, symbol L); format: in vivo, windgrass (Apera spica-venti); details: foliage application, 320 g/ha, three weeks after application
Procedure, shortened: as §1

Row | SMILES | herbicidal effect grade, L: windgrass
17 | CCOc1cc(F)ccc1-c1sc2ccccc2c1-c1c(O)c(C)nn(C)c1=O [1-061] | 5 (Herbicidal rate of 90% or more (almost completely withered))
18 | CCCC(=O)Oc1c(C)nn(C)c(=O)c1-c1c(-c2ccc(OC)c(OC)c2)sc2ccccc12 [1-073] | 0 (Herbicidal rate of 5% or less (almost no effect))

tested on: wild oat; assay: Test Example 5: herbicidal effect by foliage application, plastic box (Table 20, symbol I); format: in vivo, wild oat (Avena fatua); details: foliage application, 320 g/ha, three weeks after application
Procedure, shortened: as §1

Row | SMILES | herbicidal effect grade, I: wild oat
19 | CCOc1cc(F)ccc1-c1sc2ccccc2c1-c1c(O)c(C)nn(C)c1=O [1-061] | 5 (Herbicidal rate of 90% or more (almost completely withered))
20 | CCCC(=O)Oc1c(C)nn(C)c(=O)c1-c1c(-c2ccc(OC)c(OC)c2)sc2ccccc12 [1-073] | 2 (Herbicidal rate of 20% or more and less than 40%)

tested on: oval-leafed pondweed; assay: Test Example 2: herbicidal activity, application during weed generation under submerged conditions (Table 17, symbol C); format: in vivo, oval-leafed pondweed (Monochoria vaginalis); details: AAH 320 g/ha; application during weed generation, submerged conditions
Procedure, shortened: (§3)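 In this pot test, flooded alluvial soil (water depth 4 cm) holds all three species sown as a mixture. Once seedlings have one to two leaves, the compound's emulsion, thinned with water to the intended dose, is poured on the water; grading follows after three weeks on the earlier criteria.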

Row | SMILES | herbicidal effect rating, C: oval-leafed pondweed
21 | CCOc1cc(F)ccc1-c1sc2ccccc2c1-c1c(O)c(C)nn(C)c1=O [1-061] | 4 (Herbicidal rate of 70% or more and less than 90%)
22 | CCCC(=O)Oc1c(C)nn(C)c(=O)c1-c1c(-c2ccc(OC)c(OC)c2)sc2ccccc12 [1-073] | 5 (Herbicidal rate of 90% or more (almost completely withered))

tested on: oval-leafed pondweed; assay: Test Example 1: herbicidal activity, application before weed generation under submerged conditions (Table 16, symbol C); format: in vivo, oval-leafed pondweed (Monochoria vaginalis); details: 320 g/ha applied herbicide
Procedure, shortened: (§4)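 Emulsion formulation, water-diluted to set dose, was put onto the flooded surface (4 cm depth, alluvial soil) the same day weeds were sown and 2.5-leaf rice transplanted. After 3 weeks at 25-30 °C under glass, each species was rated 0 (≤5% kill) to 5 (≥90% kill).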

Row | SMILES | Herbicidal effect on C: oval-leafed pondweed (grade 0-5)
23 | CCOc1cc(F)ccc1-c1sc2ccccc2c1-c1c(O)c(C)nn(C)c1=O [1-061] | 3 (Herbicidal rate of 40% or more and less than 70%)
24 | CCCC(=O)Oc1c(C)nn(C)c(=O)c1-c1c(-c2ccc(OC)c(OC)c2)sc2ccccc12 [1-073] | 0 (Herbicidal rate of 5% or less (almost no effect))

tested on: Japanese bulrush; assay: Test Example 2: herbicidal activity, application during weed generation under submerged conditions (Table 17, symbol B); format: in vivo, Japanese bulrush (Schoenoplectus juncoides); details: AAH 320 g/ha; application during weed generation, submerged conditions
Procedure, shortened: as §3

Row | SMILES | herbicidal effect rating, B: Japanese bulrush
25 | CCOc1cc(F)ccc1-c1sc2ccccc2c1-c1c(O)c(C)nn(C)c1=O [1-061] | 3 (Herbicidal rate of 40% or more and less than 70%)
26 | CCCC(=O)Oc1c(C)nn(C)c(=O)c1-c1c(-c2ccc(OC)c(OC)c2)sc2ccccc12 [1-073] | 5 (Herbicidal rate of 90% or more (almost completely withered))

tested on: green foxtail; assay: Test Example 4: herbicidal effect by soil treatment (Table 19, symbol G); format: in vivo, green foxtail (Setaria viridis); details: amount of applied herbicide 320 g/ha
Procedure, shortened: as §2

Row | SMILES | herbicidal effect rating, G: green foxtail
27 | CCOc1cc(F)ccc1-c1sc2ccccc2c1-c1c(O)c(C)nn(C)c1=O [1-061] | 5 (Herbicidal rate of 90% or more (almost completely withered))
28 | CCCC(=O)Oc1c(C)nn(C)c(=O)c1-c1c(-c2ccc(OC)c(OC)c2)sc2ccccc12 [1-073] | 5 (Herbicidal rate of 90% or more (almost completely withered))

tested on: Japanese bulrush; assay: Test Example 1: herbicidal activity, application before weed generation under submerged conditions (Table 16, symbol B); format: in vivo, Japanese bulrush (Schoenoplectus juncoides); details: 320 g/ha applied herbicide
Procedure, shortened: as §4

Row | SMILES | Herbicidal effect on B: Japanese bulrush (grade 0-5)
29 | CCOc1cc(F)ccc1-c1sc2ccccc2c1-c1c(O)c(C)nn(C)c1=O [1-061] | 3 (Herbicidal rate of 40% or more and less than 70%)
30 | CCCC(=O)Oc1c(C)nn(C)c(=O)c1-c1c(-c2ccc(OC)c(OC)c2)sc2ccccc12 [1-073] | 4 (Herbicidal rate of 70% or more and less than 90%)

tested on: chickweed; assay: Test Example 4: herbicidal effect by soil treatment (Table 19, symbol P); format: in vivo, common chickweed (Stellaria media); details: amount of applied herbicide 320 g/ha
Procedure, shortened: as §2

Row | SMILES | herbicidal effect rating, P: chickweed
31 | CCOc1cc(F)ccc1-c1sc2ccccc2c1-c1c(O)c(C)nn(C)c1=O [1-061] | 5 (Herbicidal rate of 90% or more (almost completely withered))
32 | CCCC(=O)Oc1c(C)nn(C)c(=O)c1-c1c(-c2ccc(OC)c(OC)c2)sc2ccccc12 [1-073] | 4 (Herbicidal rate of 70% or more and less than 90%)
